{"source": "ChEMBL document CHEMBL6127036", "about": "“Chaperoning system: Intriguing target to modulate the expression of CFTR in cystic fibrosis” (Eur J Med Chem, 2024)", "key": {"[1]": {"experiment": "Inhibition of HSP70 (unknown origin) expressed in human HeLa cells", "assay_type": "cell-based"}, "[2]": {"molecular_target": "Cystic fibrosis transmembrane conductance regulator (Homo sapiens) (UniProt P13569)", "sequence (P13569 whole entry, looked up)": "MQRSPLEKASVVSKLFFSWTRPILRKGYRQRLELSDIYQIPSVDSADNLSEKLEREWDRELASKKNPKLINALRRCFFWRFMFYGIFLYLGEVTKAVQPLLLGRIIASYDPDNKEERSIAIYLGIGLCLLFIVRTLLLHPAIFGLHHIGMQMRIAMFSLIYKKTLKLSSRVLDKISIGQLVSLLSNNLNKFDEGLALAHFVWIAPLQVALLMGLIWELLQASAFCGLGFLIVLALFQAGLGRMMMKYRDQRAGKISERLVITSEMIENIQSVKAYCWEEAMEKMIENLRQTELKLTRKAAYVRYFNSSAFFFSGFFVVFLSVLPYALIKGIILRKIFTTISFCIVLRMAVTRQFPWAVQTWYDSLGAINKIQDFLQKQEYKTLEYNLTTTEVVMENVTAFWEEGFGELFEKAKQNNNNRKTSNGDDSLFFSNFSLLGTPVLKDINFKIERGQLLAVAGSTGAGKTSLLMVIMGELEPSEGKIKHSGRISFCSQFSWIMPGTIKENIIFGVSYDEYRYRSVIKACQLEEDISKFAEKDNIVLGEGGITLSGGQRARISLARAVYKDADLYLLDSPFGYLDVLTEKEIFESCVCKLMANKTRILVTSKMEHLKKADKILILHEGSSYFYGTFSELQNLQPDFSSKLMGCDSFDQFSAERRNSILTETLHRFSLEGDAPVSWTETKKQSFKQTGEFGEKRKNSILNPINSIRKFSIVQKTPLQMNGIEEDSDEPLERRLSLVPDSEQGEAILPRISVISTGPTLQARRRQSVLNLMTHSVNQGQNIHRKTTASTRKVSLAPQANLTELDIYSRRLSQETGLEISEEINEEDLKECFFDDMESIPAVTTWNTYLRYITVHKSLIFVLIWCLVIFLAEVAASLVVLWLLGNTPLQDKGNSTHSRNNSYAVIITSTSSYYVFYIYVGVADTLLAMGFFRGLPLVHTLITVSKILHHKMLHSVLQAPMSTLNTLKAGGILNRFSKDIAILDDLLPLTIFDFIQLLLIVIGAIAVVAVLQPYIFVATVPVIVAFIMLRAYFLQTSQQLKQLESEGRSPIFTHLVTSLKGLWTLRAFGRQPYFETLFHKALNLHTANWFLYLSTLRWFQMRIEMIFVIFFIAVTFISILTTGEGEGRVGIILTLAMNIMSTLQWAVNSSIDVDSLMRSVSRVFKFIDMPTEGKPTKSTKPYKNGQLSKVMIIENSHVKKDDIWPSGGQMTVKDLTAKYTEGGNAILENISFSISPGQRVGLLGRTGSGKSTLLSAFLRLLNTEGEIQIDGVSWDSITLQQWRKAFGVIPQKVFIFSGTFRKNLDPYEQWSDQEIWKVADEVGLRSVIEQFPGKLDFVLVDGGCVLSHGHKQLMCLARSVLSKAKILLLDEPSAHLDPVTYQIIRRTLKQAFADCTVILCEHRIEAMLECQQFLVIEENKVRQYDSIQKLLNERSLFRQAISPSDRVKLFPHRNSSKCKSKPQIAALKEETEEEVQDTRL", "experiment": "Inhibition of CFTR (unknown origin) at 10 uM relative to control"}, "[3]": {"system": "Cystic fibrosis transmembrane conductance regulator (Homo sapiens), P13569 [F508del]", "sequence (P13569 as listed by the source)": "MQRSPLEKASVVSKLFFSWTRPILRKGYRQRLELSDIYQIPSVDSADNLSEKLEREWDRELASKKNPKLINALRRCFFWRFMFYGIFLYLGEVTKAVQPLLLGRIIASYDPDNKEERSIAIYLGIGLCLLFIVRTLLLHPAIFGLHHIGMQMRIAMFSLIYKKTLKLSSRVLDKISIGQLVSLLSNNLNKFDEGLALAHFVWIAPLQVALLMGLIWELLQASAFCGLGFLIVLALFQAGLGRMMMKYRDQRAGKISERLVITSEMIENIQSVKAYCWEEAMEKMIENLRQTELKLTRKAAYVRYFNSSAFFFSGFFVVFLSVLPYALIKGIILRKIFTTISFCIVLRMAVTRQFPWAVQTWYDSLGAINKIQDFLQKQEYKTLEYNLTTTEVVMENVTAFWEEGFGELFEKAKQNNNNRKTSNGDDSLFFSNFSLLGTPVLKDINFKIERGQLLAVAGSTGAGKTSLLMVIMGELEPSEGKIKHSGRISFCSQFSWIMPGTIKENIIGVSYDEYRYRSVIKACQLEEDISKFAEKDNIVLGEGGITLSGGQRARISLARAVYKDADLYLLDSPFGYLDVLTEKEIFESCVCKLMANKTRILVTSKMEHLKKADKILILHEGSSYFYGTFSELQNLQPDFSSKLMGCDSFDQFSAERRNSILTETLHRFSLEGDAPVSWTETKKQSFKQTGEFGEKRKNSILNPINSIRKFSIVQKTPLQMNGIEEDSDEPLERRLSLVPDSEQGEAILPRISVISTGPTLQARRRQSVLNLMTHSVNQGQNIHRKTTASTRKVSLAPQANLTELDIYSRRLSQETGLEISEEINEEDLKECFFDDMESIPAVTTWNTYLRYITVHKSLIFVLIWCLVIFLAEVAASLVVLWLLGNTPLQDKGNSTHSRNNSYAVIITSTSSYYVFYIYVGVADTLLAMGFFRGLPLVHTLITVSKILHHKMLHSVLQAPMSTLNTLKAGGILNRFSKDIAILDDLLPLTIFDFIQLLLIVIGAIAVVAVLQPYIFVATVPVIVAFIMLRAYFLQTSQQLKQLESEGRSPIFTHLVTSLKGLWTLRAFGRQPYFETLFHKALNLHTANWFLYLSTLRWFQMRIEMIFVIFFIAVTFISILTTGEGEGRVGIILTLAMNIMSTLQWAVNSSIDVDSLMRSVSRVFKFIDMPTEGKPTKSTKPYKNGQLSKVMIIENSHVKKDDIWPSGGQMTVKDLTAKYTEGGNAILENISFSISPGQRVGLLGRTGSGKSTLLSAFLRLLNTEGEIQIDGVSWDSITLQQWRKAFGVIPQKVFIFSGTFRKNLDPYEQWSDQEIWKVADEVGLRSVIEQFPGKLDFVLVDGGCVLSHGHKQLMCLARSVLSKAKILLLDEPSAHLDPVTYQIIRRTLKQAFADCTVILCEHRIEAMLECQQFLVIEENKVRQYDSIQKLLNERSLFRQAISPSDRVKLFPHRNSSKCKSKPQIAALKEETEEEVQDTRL", "experiment": "Inhibition of CFTR F508del mutant (unknown origin) in FRT cells", "assay_type": "cell-based"}, "[4]": {"molecular_target": "Cystic fibrosis transmembrane conductance regulator (Homo sapiens) (UniProt P13569)", "experiment": "Activation of human CFTR expressed in rat FRT cells at 30 uM relative to control", "assay_type": "cell-based", "conditions": "filed as activator"}}, "data": [{"smiles": "N=C(N)NCCCC[C@H](O)CC(=O)N[C@@H](O)C(=O)NCCCCNCCCN", "values": [{"measurement": "EC50", "setting": "[1]", "value": 5.4, "unit": "µM"}]}, {"smiles": "N#CC1=C(N)Oc2[nH]nc(-c3ccc(F)cc3)c2C1c1c[nH]nc1-c1ccc(F)cc1", "note": "(stereo unspecified)", "values": [{"measurement": "inhibition", "setting": "[2]", "value": 70, "unit": "%"}]}, {"smiles": "N=C(N)NCCCCCCC(=O)N[C@@H](O)C(=O)NCCCCNCCCN", "values": [{"measurement": "EC50", "setting": "[1]", "value": 5.4, "unit": "µM"}]}, {"smiles": "CCN(CC)c1ccc(N/N=C2\\C(=O)C=Cc3ccccc32)cc1", "values": [{"measurement": "fold change (FC)", "setting": "[3]", "value": 15}]}, {"smiles": "N#CCc1nnc(-c2ccccn2)[nH]1", "values": [{"measurement": "fold change (FC)", "setting": "[3]", "value": 25}]}, {"smiles": "O=C1CCC[C@@H]2[C@H]3CCCN4CCC[C@@H](CN12)[C@@H]34", "values": [{"measurement": "Activity", "setting": "[4]", "value": 53, "unit": "%"}]}]}
